{
  "source": "ChEMBL document CHEMBL5729738",
  "about": "“Inhibitors of RAF kinases” (2023)",
  "molecular_target": "RAF proto-oncogene serine/threonine-protein kinase (Homo sapiens, UniProt P04049)",
  "sequence (P04049 whole entry)": "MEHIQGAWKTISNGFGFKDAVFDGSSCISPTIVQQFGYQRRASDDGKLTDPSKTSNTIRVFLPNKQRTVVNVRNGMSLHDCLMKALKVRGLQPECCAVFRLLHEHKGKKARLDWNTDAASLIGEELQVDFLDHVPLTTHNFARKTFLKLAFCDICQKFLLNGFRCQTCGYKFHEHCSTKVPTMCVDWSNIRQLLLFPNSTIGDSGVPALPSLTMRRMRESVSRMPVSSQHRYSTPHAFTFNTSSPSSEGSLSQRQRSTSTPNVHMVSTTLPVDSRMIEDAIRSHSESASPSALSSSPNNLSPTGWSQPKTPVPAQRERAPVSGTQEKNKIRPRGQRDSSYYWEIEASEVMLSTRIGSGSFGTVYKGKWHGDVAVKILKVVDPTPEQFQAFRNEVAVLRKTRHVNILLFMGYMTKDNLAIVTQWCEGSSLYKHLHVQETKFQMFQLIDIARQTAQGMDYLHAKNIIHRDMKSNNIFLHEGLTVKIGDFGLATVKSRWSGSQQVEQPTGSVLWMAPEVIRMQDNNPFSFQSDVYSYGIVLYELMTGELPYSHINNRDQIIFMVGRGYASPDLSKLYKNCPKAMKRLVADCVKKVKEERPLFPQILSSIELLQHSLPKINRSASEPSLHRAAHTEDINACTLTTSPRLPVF",
  "test": "Kinase Assay: Protein kinase assay: Assay platform was used to measure kinase/inhibitor interactions as described previously (Anastassiadis et al., 2011). In brief, for each reaction, kinase and substrate were mixed in a buffer containing 20 mM HEPES (pH 7.5), 10 mM MgCl2, 1 mM EGTA, 0.02% Brij35, 0.02 mg/mL BSA, 0.1 mM Na3VO4, 2 mM DTT, and 1% DMSO. All compounds were solubilized in DMSO. Compounds were then added to each reaction mixture via acoustic dispense using an ECHO 550 nanoliter dispenser. For human RAF1 testing, human MEK1 (K97R) was used as a substrate at a concentration of 3 micromolar, with a final ATP concentration of 10 micromolar. For human BRAF testing, human MEK1 (K97R) was used as a substrate at 1 micromolar concentration, with a final ATP concentration of 25 micromolar. […] After a 20-min incubation, ATP (Sigma-Aldrich, St. Louis, Mo. 63178) and [g33P] ATP (specific activity 10 microCi/microliter) purchased at PerkinElmer (Boston, Mass., 02118 Cat #BLU 003H250UC) were added at a final total concentration of 10 mM. Reactions were carried out at room temperature for 2 hr and spotted onto P81 ion exchange cellulose chromatography paper (Reaction Biology). Filter paper was washed in 0.75% phosphoric acid to remove unincorporated ATP. The percent remaining kinase activity relative to a vehicle-containing (DMSO) kinase reaction was calculated for each kinase/inhibitor pair. […]",
  "data": [
    {"smiles": "CNc1ncc2cc(-c3cc(NC(=O)N4CC[C@H](C(F)(F)F)C4)c(F)cc3C)c(C)nc2n1", "values": [
      {"measurement": "IC50", "value": "< 10", "unit": "nM"}
    ]}
  ]
}
